Among the data in patent publication US10532995B2, “Substituted pyrazole compounds as serine protease inhibitors” (VERSEON CORPORATION, priority 2015, dated 2020) are IC50 values, retold here.

Counter-ions that a name gives are not always drawn. A value given as a limit tells only on which side of the number the result lay.

This assay deals with T1, Human thrombin (Homo sapiens, UniProt P00734).
T1 construct: purchased Haematologic Technologies Inc
Nature of the assay: Thrombin protease activity inhibition, chromogenic substrate S-2238. It is filed as biochemical. The following applies: 3 nM thrombin, 125 μM S-2238, 10 min pre-incubation, RT. How it is done: The thrombin activity reported herein (e.g., Table A) was obtained as follows. […] Thrombin was assayed in buffer containing 0.05 M Tris (pH 7.4), 0.015 M NaCl and 0.01% PEG-8000. The final concentration of enzyme used was 3 nM thrombin. […] All assays were performed in 96-well microtiter plates at room temperature (RT). […] Inhibitor IC50 values were determined by adding test compound as ten point, three-fold serial dilutions in buffer solution, as known in the art. The plate was read at 10 minutes after substrate addition. The IC50 was calculated by plotting the percent (%) inhibition against compound concentration and fitting the data to a constrained four parameter sigmoidal curve, as known in the art.
For `CC(C)(C)C(=O)n1nc(C2CC3CCC(C2)N3S(C)(=O)=O)cc1NCc1ccc(Cl)s1` (centres unmarked) [Entry 81, 1-(5-[(5-chlorothiophen-2-yl)methyl]amino-3-8-methanesulfonyl-8-azabicyclo[3.2.1]octan-3-yl-1H-pyrazol-1-yl)-2,2-dimethylpropan-1-one], the IC50 (as a rule, the point on the concentration scale where inhibition reaches its midpoint) was under 0.1 µM.
For `COC(C)(C)C(=O)n1nc(C2CCNCC2)c(F)c1NCc1ccc(Cl)s1` [Entry 86, 1-(5-[(5-chlorothiophen-2-yl)methyl]amino-4-fluoro-3-(piperidin-4-yl)-1H-pyrazol-1-yl)-2-methoxy-2-methylpropan-1-one], the IC50 fell in the range of 0.1 to 1 µM.
With `Cc1c(C2CCNCC2)nn(C(=O)C(C)(C)C)c1NCc1ccc(Cl)s1` [Entry 89, 1-(5-[(5-chlorothiophen-2-yl)methyl]amino-4-methyl-3-(piperidin-4-yl)-1H-pyrazol-1-yl)-2,2-dimethylpropan-1-one; formic acid], the IC50 lay in the range of 1 to 10 µM.
Take `COc1ccccc1C(=O)n1nc(C2CCCN2C(=O)C(C)(C)C)cc1NCc1ccc(Cl)s1` (centres unmarked) [Entry 90, 1-[2-(5-[(5-chlorothiophen-2-yl)methyl]amino-1-(2-methoxybenzoyl)-1H-pyrazol-3-yl)pyrrolidin-1-yl]-2,2-dimethylpropan-1-one]: the IC50 was in the range of 0.1 to 1 µM.
Compound `COc1ccccc1C(=O)n1nc(C2CCCN2C(=O)C(C)C)cc1NCc1ccc(Cl)s1` (centres unmarked) [Entry 91, 1-[2-(5-[(5-chlorothiophen-2-yl)methyl]amino-1-(2-methoxybenzoyl)-1H-pyrazol-3-yl)pyrrolidin-1-yl]-2-methylpropan-1-one] came in with an IC50 of 0.1 to 1 µM.
In turn, `O=C(CN1CCOCC1)N1CCCC1c1cc(NCc2ccc(Cl)s2)[nH]n1` (centres unmarked) [Entry 93, 1-[2-(5-[(5-chlorothiophen-2-yl)methyl]amino-1H-pyrazol-3-yl)pyrrolidin-1-yl]-2-(morpholin-4-yl)ethan-1-one] displayed an IC50 of over 100 µM.
As for `CC(=O)N1CCC(c2cc(NCc3ccc(Cl)s3)n(C(=O)C(C)(C)C)n2)CC1` [Entry 94, 1-[3-(1-acetylpiperidin-4-yl)-5-[(5-chlorothiophen-2-yl)methyl]amino-1H-pyrazol-1-yl]-2,2-dimethylpropan-1-one], the figure is under 0.1 µM; as for `CC(C)(C)C(=O)n1nc(C2CCN(Cc3ccccc3)CC2)cc1NCc1ccc(Cl)s1` [Entry 95, 1-[3-(1-benzylpiperidin-4-yl)-5-[(5-chlorothiophen-2-yl)methyl]amino-1H-pyrazol-1-yl]-2,2-dimethylpropan-1-one], under 0.1 µM.
As to `CC(C)(C)C(=O)N1CC(c2cc(NCc3ccc(Cl)s3)n(C(=O)C(C)(C)C)n2)C1` [Entry 96, 1-[3-(5-[(5-chlorothiophen-2-yl)methyl]amino-1-(2,2-dimethylpropanoyl)-1H-pyrazol-3-yl)azetidin-1-yl]-2,2-dimethylpropan-1-one], the IC50 was in the range of 0.1 to 1 µM.
Turning to `CC(C)(C)C(=O)N1CC(c2cc(NCc3ccc(Cl)s3)[nH]n2)C1` [Entry 97, 1-[3-(5-[(5-chlorothiophen-2-yl)methyl]amino-1H-pyrazol-3-yl)azetidin-1-yl]-2,2-dimethylpropan-1-one], the IC50 is over 100 µM.
In turn, `CC(C)(C)C(=O)N1CCC(c2cc(NCc3ccc(Cl)s3)n(C(=O)c3ccsc3)n2)CC1` [Entry 101, 1-[4-(5-[(5-chlorothiophen-2-yl)methyl]amino-1-(thiophene-3-carbonyl)-1H-pyrazol-3-yl)piperidin-1-yl]-2,2-dimethylpropan-1-one] returned an IC50 of under 0.1 µM.
For the compound `CC(=O)N1CCC(c2cc(NCc3ccc(Cl)s3)n(C(=O)c3ccsc3)n2)CC1` [Entry 102, 1-[4-(5-[(5-chlorothiophen-2-yl)methyl]amino-1-(thiophene-3-carbonyl)-1H-pyrazol-3-yl)piperidin-1-yl]ethan-1-one], the IC50 fell in the range of 0.1 to 1 µM.
As to `O=C(CN1CCOCC1)N1CCC(c2cc(NCc3ccc(Cl)s3)[nH]n2)CC1` [Entry 103, 1-[4-(5-[(5-chlorothiophen-2-yl)methyl]amino-1H-pyrazol-3-yl)piperidin-1-yl]-2-(morpholin-4-yl)ethan-1-one], the IC50 is over 100 µM.
As to `O=C(N1CCC(c2n[nH]c(NCc3ccc(Cl)s3)c2F)CC1)C1(O)CC1` [Entry 104, 1-[4-(5-[(5-chlorothiophen-2-yl)methyl]amino-4-fluoro-1H-pyrazol-3-yl)piperidine-1-carbonyl]cyclopropan-1-ol], the IC50 was in the range of 10 to 100 µM.
As for `O=C(c1ccccc1)n1nc(C2CCNCC2)cc1NCc1ccc(Cl)s1` [Entry 105, 1-benzoyl-N-[(5-chlorothiophen-2-yl)methyl]-3-(piperidin-4-yl)-1H-pyrazol-5-amine hydrochloride], the figure is 0.1 to 1 µM; as for `CC(C)(C)C(=O)n1nc(C2CCN(CC(=O)O)CC2)cc1NCc1ccc(Cl)s1` [Entry 109, 2-[4-(5-[(5-chlorothiophen-2-yl)methyl]amino-1-(2,2-dimethylpropanoyl)-1H-pyrazol-3-yl)piperidin-1-yl]acetic acid], 0.1 to 1 µM; as for `CC(C)(CO)C(=O)n1nc(C2CCN(CC(=O)O)CC2)cc1NCc1ccc(Cl)s1` [Entry 110, 2-[4-(5-[(5-chlorothiophen-2-yl)methyl]amino-1-(3-hydroxy-2,2-dimethylpropanoyl)-1H-pyrazol-3-yl)piperidin-1-yl]acetic acid], 0.1 to 1 µM.
As to `O=C(CN1CCC(c2cc(NCc3ccc(Cl)s3)[nH]n2)CC1)N1CCOCC1` [Entry 111, 2-[4-(5-[(5-chlorothiophen-2-yl)methyl]amino-1H-pyrazol-3-yl)piperidin-1-yl]-1-(morpholin-4-yl)ethan-1-one], the IC50 was over 100 µM.
Consider `O=C(O)CN1CCC(c2cc(NCc3ccc(Cl)s3)[nH]n2)CC1` [Entry 112, 2-[4-(5-[(5-chlorothiophen-2-yl)methyl]amino-1H-pyrazol-3-yl)piperidin-1-yl]acetic acid], for which the IC50 is over 100 µM.
Take `Clc1ccc(CNc2cc(C3CCN(Cc4ccccc4)CC3)n[nH]2)s1` [Entry 113, 3-(1-benzylpiperidin-4-yl)-N-[(5-chlorothiophen-2-yl)methyl]-1H-pyrazol-5-amine]: the IC50 is over 100 µM.
The compound `O=C(c1ccoc1)n1nc(C2CCN(Cc3ccccc3)C2)cc1NCc1ccc(Cl)s1` (centres unmarked) [Entry 114, 3-(1-benzylpyrrolidin-3-yl)-N-[(5-chlorothiophen-2-yl)methyl]-1-(furan-3-carbonyl)-1H-pyrazol-5-amine] gave an IC50 of 1 to 10 µM.
The figure for `CC(C)(C)C(=O)n1nc(C2(C)CCCNC2=O)cc1NCc1ccc(Cl)s1` (centres unmarked) [Entry 115, 3-(5-[(5-chlorothiophen-2-yl)methyl]amino-1-(2,2-dimethylpropanoyl)-1H-pyrazol-3-yl)-3-methylpiperidin-2-one] is 0.1 to 1 µM.
In turn, `CC(C)(C)C(=O)n1nc(C2(C)CCNC2=O)cc1NCc1ccc(Cl)s1` (centres unmarked) [Entry 116, 3-(5-[(5-chlorothiophen-2-yl)methyl]amino-1-(2,2-dimethylpropanoyl)-1H-pyrazol-3-yl)-3-methylpyrrolidin-2-one] yielded an IC50 of under 0.1 µM.
As for `COc1ccccc1C(=O)n1nc(C2(C)CCCNC2=O)cc1NCc1ccc(Cl)s1` (centres unmarked) [Entry 117, 3-(5-[(5-chlorothiophen-2-yl)methyl]amino-1-(2-methoxybenzoyl)-1H-pyrazol-3-yl)-3-methylpiperidin-2-one], the IC50 was in the range of 0.1 to 1 µM.
`COc1ccccc1C(=O)n1nc(C2(C)CCNC2=O)cc1NCc1ccc(Cl)s1` (centres unmarked) [Entry 118, 3-(5-[(5-chlorothiophen-2-yl)methyl]amino-1-(2-methoxybenzoyl)-1H-pyrazol-3-yl)-3-methylpyrrolidin-2-one] had an IC50 of 0.1 to 1 µM.
The figure for `CC(C)(CO)C(=O)n1nc(C2(C)CCCNC2=O)cc1NCc1ccc(Cl)s1` (centres unmarked) [Entry 119, 3-(5-[(5-chlorothiophen-2-yl)methyl]amino-1-(3-hydroxy-2,2-dimethylpropanoyl)-1H-pyrazol-3-yl)-3-methylpiperidin-2-one] is 0.1 to 1 µM.
The figure for `COCC(C)(C)C(=O)n1nc(C2(C)CCCNC2=O)cc1NCc1ccc(Cl)s1` (centres unmarked) [Entry 120, 3-(5-[(5-chlorothiophen-2-yl)methyl]amino-1-(3-methoxy-2,2-dimethylpropanoyl)-1H-pyrazol-3-yl)-3-methylpiperidin-2-one] is 1 to 10 µM.
With `CC1(C(=O)n2nc(C3(C)CCCNC3=O)cc2NCc2ccc(Cl)s2)CCOCC1` (centres unmarked) [Entry 121, 3-(5-[(5-chlorothiophen-2-yl)methyl]amino-1-(4-methyloxane-4-carbonyl)-1H-pyrazol-3-yl)-3-methylpiperidin-2-one], the IC50 lay within 1 to 10 µM.
Compound `CC1(C(=O)n2nc(C3(C)CCNC3=O)cc2NCc2ccc(Cl)s2)CCOCC1` (centres unmarked) [Entry 122, 3-(5-[(5-chlorothiophen-2-yl)methyl]amino-1-(4-methyloxane-4-carbonyl)-1H-pyrazol-3-yl)-3-methylpyrrolidin-2-one] displayed an IC50 of 0.1 to 1 µM.
Compound `CC1(c2cc(NCc3ccc(Cl)s3)n(C(=O)c3ccsc3)n2)CCCNC1=O` (centres unmarked) [Entry 123, 3-(5-[(5-chlorothiophen-2-yl)methyl]amino-1-(thiophene-3-carbonyl)-1H-pyrazol-3-yl)-3-methylpiperidin-2-one] had an IC50 of 0.1 to 1 µM.
Turning to `CC1(c2cc(NCc3ccc(Cl)s3)n(C(=O)c3ccsc3)n2)CCNC1=O` (centres unmarked) [Entry 124, 3-(5-[(5-chlorothiophen-2-yl)methyl]amino-1-(thiophene-3-carbonyl)-1H-pyrazol-3-yl)-3-methylpyrrolidin-2-one], the IC50 was in the range of 0.1 to 1 µM.
As to `Clc1ccc(CNc2cc(C3CCCNCC3)n[nH]2)s1` (centres unmarked) [Entry 125, 3-(azepan-4-yl)-N-[(5-chlorothiophen-2-yl)methyl]-1H-pyrazol-5-amine], the IC50 was over 100 µM.
